Here are results for 4 compounds from US20260256827A1, “Methods for treating lower back pain with hyaluronic acid” (priority 2023, published 2026).

Holding throughout (format): in vivo, human
Assay [1] concerns chronic lower back pain with enthesopathy. Kind of assay: Example 3: HA injections, patient, pain severity on visual analog numerical rating scale. Conditions: tramadol and cyclobenzaprine together, before HA. The protocol:
(§1) In the Examples, unless otherwise specified, pain severity was assessed using a visual analog numerical rating scale ranging from 0 (no pain) to 10 (worst pain possible), and hyaluronic acid (HA) injections (Hyalgan™, 10 mg/mL, MW: 500,000 to 730,000 Daltons in 2 mL pre-filled syringes) were administered using a 30 gauge, ½″ needle.

The next assay deals with chronic low back pain. Kind of assay: Example 4: Hyalgan injections, person, pain severity. Conditions: before Hyalgan. On the procedure:
as §1
Hyaluronic acid injections were administered in the form of Hyalgan ([…]) along the lateral margin of the left PSIS (two injections; 1 mL each). […] […] received subsequent injections on this visit: again two injections of 1 mL each along the lateral margins of […] left PSIS.

In assay [2] the test system is chronic, bilateral lower back pain. The assay can be described thus: Example 2: HA injections, patient, pain severity on visual analog numerical rating scale. As to conditions: 75 mg bid from Nov. 9, 2023; recurrence reported Jan. 8, 2024. On the procedure:
as §1
On Oct. 5, 2023, a patient reported chronic, bilateral lower back pain, and more recent onset of pain in their feet that slowly spread to their lower leg, but mostly resides on the plantar surface of their feet. The lower back pain severity was 7/10 (between severe and very severe) at rest, and up to 9/10 (between very severe and worse pain possible) after standing all day.
On Oct. […] The injection locations were determined by findings of focal tenderness of the palpated sites illustrated in FIG. 1.
On Oct. 12, 2023, patient reported maximum lower back pain severity of 5-6/10 (severe). […] These injection locations were again determined by findings of focal tenderness of palpated sites illustrated in FIG. 1.
On Jan. […] These injection locations were again determined by findings of focal tenderness of palpated sites illustrated in FIG. 1.
On Mar. […] These injection locations were again determined by findings of focal tenderness of palpated sites illustrated in FIG. 1.

In assay [3] the test system is peripheral neuropathy foot pain. The assay can be described thus: Example 2 patient: treatment of peripheral neuropathy / foot pain. Conditions: 75 mg bid from Nov. 9, 2023. On the procedure:
Beginning on Oct. 2, 2023, the patient was treated for peripheral neuropathy lidocaine/prilocaine 2.5% cream applied to their feet bilaterally. […] 8, 2024.

Turning to `CN(C)CCC=C1c2ccccc2C=Cc2ccccc21` [cyclobenzaprine], in assay [1], the “benefit of ongoing treatment for lower back pain” value was “helped only marginally”. The “benefit of prior treatment for low back pain” value in the assay with chronic low back pain was “without benefit”.

For `CC(C)Cc1ccc(C(C)C(=O)O)cc1` (stereo not drawn) [ibuprofen], in the assay on chronic low back pain, the “benefit of prior treatment for low back pain” value is “without benefit”.

As to `CC(C)C[C@H](CN)CC(=O)O` [pregabalin], the “effect on recurrence of lower back pain” value in assay [2] is listed as “did not prevent the recurrence”. Also, the “effect on foot pain” value in assay [3] is given as “helpful”.

Consider `COc1cccc(C2(O)CCCCC2CN(C)C)c1` (stereo not drawn) [tramadol], for which the “benefit of ongoing treatment for lower back pain” value in assay [1] is given as “helped only marginally”.
